Experimental data as given in patent publication US4336253A, “Cephalosporin antibiotics” (Eli Lilly and Company, priority 1981, dated 1982).

Test: physchem
[1] = 66% dmf, first titratable group
[2] = 66% dmf, second titratable group

O=C(Cc1cccnc1)NO [N-hydroxy 3-pyridineacetamide]
pKa [1]: 3.68 | pKa [2]: 11.5 | pKa (water, first titratable group): 4.6 | pKa (water, second titratable group): 9.09

O=C(Cc1ccccn1)NO [N-hydroxy-2-pyridineacetamide]
pKa [1]: ~3.4 | pKa [2]: 11.7 | pKa (water, first titratable group): 4.05 | pKa (water, second titratable group): 9.2

CN(O)C(=O)c1ccncc1 [N-hydroxy-N-methyl 4-pyridinecarboxamide]
pKa (water, first titratable group): 3.55 | pKa (water, second titratable group): 7.9
